Assay results: article PMC10641818, “Development of First-in-Class Dual Sirt2/HDAC6 Inhibitors as Molecular Tools for Dual Inhibition of Tubulin Deacetylation” (Journal of Medicinal Chemistry, 2023)

Key:
[1] = biological target: T1, Sirt2 (demyristoylation) (Homo sapiens, UniProt Q8IXJ6); experiment: Discontinuous Sirt2 demyristoylation assay (ZMML substrate); type: biochemical; settings: for IC50: mean ± SD
T1 construct: the respective sirtuin (Sirt1_134–747, Sirt2_56–356, or Sirt3_118–395) was mixed with; made in house; host or cells: Escherichia coli BL21 Star (DE3)
T1 sequence (Q8IXJ6 56-356): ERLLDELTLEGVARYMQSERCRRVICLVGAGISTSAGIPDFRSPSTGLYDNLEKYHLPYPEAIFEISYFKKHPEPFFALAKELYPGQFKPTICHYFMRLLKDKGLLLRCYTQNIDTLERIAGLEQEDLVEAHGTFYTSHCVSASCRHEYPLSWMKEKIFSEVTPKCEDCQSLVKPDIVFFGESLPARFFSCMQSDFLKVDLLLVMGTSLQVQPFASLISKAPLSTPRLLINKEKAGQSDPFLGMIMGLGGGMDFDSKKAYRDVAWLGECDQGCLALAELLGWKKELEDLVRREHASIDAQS

[2] = biological target: T2, Sirt2 (Homo sapiens, UniProt Q8IXJ6); experiment: Sirt2 in vitro deacetylation assay (ZMAL, trypsin-based fluorescence); type: biochemical; settings: for IC50: deacetylation, mean ± SD
T2 construct: the respective sirtuin (Sirt1_134–747, Sirt2_56–356, or Sirt3_118–395) was mixed with; made in house; host or cells: Escherichia coli BL21 Star (DE3)
T2 sequence (Q8IXJ6 56-356): T1 sequence (Q8IXJ6 56-356)

[3] = biological target: T3, Sirt1 (Homo sapiens, UniProt Q96EB6); experiment: Sirt1 in vitro deacetylation assay (ZMAL); type: biochemical
T3 construct: the respective sirtuin (Sirt1_134–747, Sirt2_56–356, or Sirt3_118–395) was mixed with; made in house; host or cells: Escherichia coli BL21 Star (DE3)
T3 sequence (Q96EB6 134-747): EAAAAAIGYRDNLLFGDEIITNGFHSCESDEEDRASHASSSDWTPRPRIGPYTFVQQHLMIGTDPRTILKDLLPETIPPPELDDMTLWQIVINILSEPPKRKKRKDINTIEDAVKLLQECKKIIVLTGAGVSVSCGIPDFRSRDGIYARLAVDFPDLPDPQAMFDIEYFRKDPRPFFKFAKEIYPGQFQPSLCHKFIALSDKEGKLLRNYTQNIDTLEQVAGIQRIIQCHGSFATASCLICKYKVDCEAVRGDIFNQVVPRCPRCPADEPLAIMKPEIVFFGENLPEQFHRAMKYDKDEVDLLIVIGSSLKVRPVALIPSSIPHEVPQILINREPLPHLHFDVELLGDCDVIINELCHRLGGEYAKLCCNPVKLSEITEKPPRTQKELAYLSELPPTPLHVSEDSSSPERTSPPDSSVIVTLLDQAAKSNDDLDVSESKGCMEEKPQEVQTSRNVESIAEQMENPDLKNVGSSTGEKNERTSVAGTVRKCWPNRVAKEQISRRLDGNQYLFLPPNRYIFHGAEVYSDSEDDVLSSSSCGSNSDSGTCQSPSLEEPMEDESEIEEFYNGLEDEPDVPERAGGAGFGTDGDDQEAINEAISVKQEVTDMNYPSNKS

[4] = biological target: T4, Sirt3 (Homo sapiens, UniProt Q9NTG7); experiment: Sirt3 in vitro deacetylation assay (ZMAL); type: biochemical
T4 construct: the respective sirtuin (Sirt1_134–747, Sirt2_56–356, or Sirt3_118–395) was mixed with; made in house; host or cells: Escherichia coli BL21 Star (DE3)
T4 sequence (Q9NTG7 118-395): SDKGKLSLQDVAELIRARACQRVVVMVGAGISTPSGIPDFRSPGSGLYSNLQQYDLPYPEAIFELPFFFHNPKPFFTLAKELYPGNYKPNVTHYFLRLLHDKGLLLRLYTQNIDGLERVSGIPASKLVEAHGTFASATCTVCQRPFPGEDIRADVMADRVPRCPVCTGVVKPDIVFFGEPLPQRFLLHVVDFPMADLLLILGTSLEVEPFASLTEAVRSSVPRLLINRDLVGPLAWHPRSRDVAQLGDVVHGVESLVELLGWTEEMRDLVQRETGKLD

[5] = biological target: T5, HDAC1 (Homo sapiens, UniProt Q13547); experiment: HDAC1 in vitro deacetylation assay (ZMAL); type: biochemical; settings: deacetylation, mean ± SD
T5 construct: purchased BPS Bioscience 50051

[6] = test system: HGC27 gastric carcinoma cells; experiment: Cell viability assay (MTS) HGC27; type: cell-based; settings: 72 h; for HGC27 cellular effect: @ 50 μM
Description: (§1) Cell viability assays of HGC27 and PC-3M-luc cells were performed by using the Celltiter 96 Aqueous Nonradioactive Proliferation Assay (Promega). Cells were seeded in sterile 96-well plates at a density of 2000 cells per well and incubated overnight at 37 °C and 5% CO2. Compound or vehicle were added to a final concentration of 0.5% DMSO. […] Cells were seeded at densities of 10^4 cells/well for W1 cells or 2 × 10^3 cells/well for MCF-7 cells. Tests were performed in 96-well plates (Sarstedt AG, Nümbrecht, Germany). After incubation overnight, cells were supplemented with half logarithmic dilution series of the indicated compounds and DPBS (PAN Biotech GmbH, Aidenbach, Germany) as control. Then 72 h after addition of cytostatic treatment, the MTT solution (20 μL, 5 mg/mL) was added into the wells for 1 h at 37 °C and 5% CO2 until formazan crystals were formed. The supernatant was removed, and the cells were dissolved in 200 μL of DMSO. Absorption was analyzed at 570 nm, with background subtraction at 690 nm, using a plate reader (Thermomultiscan EX, Thermo, Schwerte, Germany). Cell viability was then determined by nonlinear regression and a four-parameter logistic equation with variable hill slope. […] The significance of the difference of the effects of 33 and 4 + 57 was determined by using an unpaired, two-tailed t test with Welch’s correction, implemented in GraphPad Prism 8.4.0 (GraphPad, USA). Statistical significance was accepted if p < 0.05. Asterisks indicate *p < 0.05, **p < 0.01.

[7] = test system: W1 ovarian cancer cells; experiment: Cell viability assay (MTT) W1; type: cell-based; settings: 72 h; for W1 cellular effect: @ 50 μM
Description: as §1

[8] = test system: MCF-7 breast cancer cells; experiment: Cell viability assay (MTT) MCF-7; type: cell-based; settings: 72 h; for MCF-7 cellular effect: @ 50 μM
Description: as §1

[9] = test system: PC-3M-luc prostate cancer cells; experiment: Cell viability assay (MTS) PC-3M-luc; type: cell-based; settings: 72 h; for PC-3M-luc cellular effect: @ 50 μM
Description: as §1

[10] = biological target: T6, HDAC6 (Homo sapiens, UniProt Q9UBN7); experiment: HDAC6 in vitro deacetylation assay (ZMAL); type: biochemical; set-up: purchased BPS Bioscience 50006; settings: deacetylation, mean ± SD
T6 sequence (Q9UBN7 1-1215): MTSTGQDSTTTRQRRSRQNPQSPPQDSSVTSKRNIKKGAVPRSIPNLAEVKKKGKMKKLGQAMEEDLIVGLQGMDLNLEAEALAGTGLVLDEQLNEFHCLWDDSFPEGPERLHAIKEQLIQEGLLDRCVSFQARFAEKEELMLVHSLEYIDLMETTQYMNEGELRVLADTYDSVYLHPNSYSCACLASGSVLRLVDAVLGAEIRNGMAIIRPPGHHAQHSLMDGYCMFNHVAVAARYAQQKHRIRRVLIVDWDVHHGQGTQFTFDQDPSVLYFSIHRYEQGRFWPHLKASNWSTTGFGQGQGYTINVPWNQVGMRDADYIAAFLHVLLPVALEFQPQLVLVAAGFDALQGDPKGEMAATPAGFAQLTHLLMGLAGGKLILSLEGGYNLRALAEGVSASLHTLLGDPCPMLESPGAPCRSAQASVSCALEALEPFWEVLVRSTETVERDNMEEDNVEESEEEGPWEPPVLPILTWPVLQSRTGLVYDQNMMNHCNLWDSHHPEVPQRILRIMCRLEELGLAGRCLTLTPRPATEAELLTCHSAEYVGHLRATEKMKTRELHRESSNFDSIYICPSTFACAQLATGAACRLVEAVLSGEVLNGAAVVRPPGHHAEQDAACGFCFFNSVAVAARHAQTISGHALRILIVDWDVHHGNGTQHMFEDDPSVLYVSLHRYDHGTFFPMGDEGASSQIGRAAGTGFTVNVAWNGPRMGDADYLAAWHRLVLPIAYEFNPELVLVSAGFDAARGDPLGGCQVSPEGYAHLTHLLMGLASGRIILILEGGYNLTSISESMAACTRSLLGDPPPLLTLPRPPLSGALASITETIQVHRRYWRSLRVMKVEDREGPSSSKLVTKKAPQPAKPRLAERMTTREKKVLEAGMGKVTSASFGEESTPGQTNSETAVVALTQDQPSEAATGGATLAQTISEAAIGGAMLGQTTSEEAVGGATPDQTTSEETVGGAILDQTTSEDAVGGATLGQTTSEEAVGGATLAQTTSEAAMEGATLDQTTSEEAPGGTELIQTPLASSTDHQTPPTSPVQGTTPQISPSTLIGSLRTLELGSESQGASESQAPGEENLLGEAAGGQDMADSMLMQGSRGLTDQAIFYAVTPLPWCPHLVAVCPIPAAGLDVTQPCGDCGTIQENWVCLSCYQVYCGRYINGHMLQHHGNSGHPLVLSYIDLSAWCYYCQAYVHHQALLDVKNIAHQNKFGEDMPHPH

[11] = biological target: T7, Sirt2 (Homo sapiens, UniProt Q8IXJ6); experiment: Cell-based NanoBRET assay for Sirt2 target engagement in HEK293T cells; settings: tracer SirReal-TAMRA 2 μM
T7 construct: expressed in transfected cells; host or cells: HEK293T
T7 sequence (Q8IXJ6 1-389): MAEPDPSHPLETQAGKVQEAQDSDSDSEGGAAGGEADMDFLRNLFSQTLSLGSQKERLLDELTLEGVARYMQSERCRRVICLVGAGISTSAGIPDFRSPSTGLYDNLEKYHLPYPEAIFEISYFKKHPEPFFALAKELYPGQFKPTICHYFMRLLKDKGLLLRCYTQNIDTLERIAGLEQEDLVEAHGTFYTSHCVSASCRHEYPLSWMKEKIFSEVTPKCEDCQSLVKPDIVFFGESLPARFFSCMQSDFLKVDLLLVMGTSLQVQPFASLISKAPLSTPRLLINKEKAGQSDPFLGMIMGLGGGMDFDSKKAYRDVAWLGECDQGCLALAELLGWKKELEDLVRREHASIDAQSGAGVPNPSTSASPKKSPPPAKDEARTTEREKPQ

T5 sequence (Q13547 whole entry): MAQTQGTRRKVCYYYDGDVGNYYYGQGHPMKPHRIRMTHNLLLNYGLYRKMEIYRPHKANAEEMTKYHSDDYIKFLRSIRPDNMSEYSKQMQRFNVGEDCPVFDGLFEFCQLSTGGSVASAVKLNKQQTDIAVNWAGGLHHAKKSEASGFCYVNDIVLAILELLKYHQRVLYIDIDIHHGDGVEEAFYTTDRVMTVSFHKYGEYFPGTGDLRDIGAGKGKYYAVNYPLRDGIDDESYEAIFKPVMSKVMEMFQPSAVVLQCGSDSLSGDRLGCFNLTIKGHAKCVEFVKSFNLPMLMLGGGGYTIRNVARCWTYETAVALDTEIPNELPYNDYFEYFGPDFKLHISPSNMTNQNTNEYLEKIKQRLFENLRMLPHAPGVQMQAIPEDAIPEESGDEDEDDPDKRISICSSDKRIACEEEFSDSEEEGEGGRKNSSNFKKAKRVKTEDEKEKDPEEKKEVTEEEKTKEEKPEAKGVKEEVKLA

Compound: Cc1cc(C)nc(SCC(=O)Nc2ncc(Cc3cccc(C(=O)NO)c3)s2)n1 [Compound 21, 3-((2-(2-((4,6-Dimethylpyrimidin-2-yl)thio)acetamido)thiazol-5-yl)methyl)-N-hydroxybenzamide]
- inhibition at 20 µM [1]: < 15%

Compound: Cc1cc(C)nc(SCC(=O)Nc2ncc(Cc3cccc(OCc4cn(CCOCCOCCOCCOCCC(=O)Nc5ccc(C(=O)NCc6ccc(C(=O)NO)cc6)cc5)nn4)c3)s2)n1 [Compound 44, 4-((4-(1-(4-((3-((2-(2-((4,6-Dimethylpyrimidin-2-yl)thio)acetamido)thiazol-5-yl)methyl)phenoxy)methyl)-1H-1,2,3-triazol-1-yl)-3,6,9,12-tetraoxapentadecan-15-amido)benzamido)methyl)-N-hydroxybenzamide]
- IC50 [2]: 480 ± 40 nM
- inhibition at 20 µM [3]: < 15%
- inhibition at 20 µM [4]: < 15%
- IC50 [5]: 600 ± 30 nM
- IC50 [1]: 34000 ± 2000 nM
- HGC27 cellular effect [6]: ni ^b (ni = no inhibition (cellular effect <20% @ 50 μM))
- W1 cellular effect [7]: ni ^b (ni = no inhibition (cellular effect <20% @ 50 μM))
- MCF-7 cellular effect [8]: ni ^b (ni = no inhibition (cellular effect <20% @ 50 μM))
- PC-3M-luc cellular effect [9]: ni ^b (ni = no inhibition (cellular effect <20% @ 50 μM))
- IC50 [10]: 9.6 ± 0.3 nM

Compound: Cc1cc(C)nc(SCC(=O)Nc2ncc(Cc3cccc(OCc4cn(CCOCCOCCOCCOCCOCCOCCOCCOCCOCCOCCC(=O)Nc5ccc(C(=O)NCc6ccc(C(=O)NO)cc6)cc5)nn4)c3)s2)n1 [Compound 45, 4-((4-(1-(4-((3-((2-(2-((4,6-Dimethylpyrimidin-2-yl)thio)acetamido)thiazol-5-yl)methyl)phenoxy)methyl)-1H-1,2,3-triazol-1-yl)-3,6,9,12,15,18,21,24,27,30-decaoxatritriacontan-33-amido)benzamido)methyl)-N-hydroxybenzamide]
- IC50 [2]: 540 ± 10 nM
- inhibition at 20 µM [3]: < 15%
- inhibition at 20 µM [4]: < 15%
- IC50 [5]: 460 ± 50 nM
- IC50 [1]: 2800 ± 600 nM
- HGC27 cellular effect [6]: ni ^b (ni = no inhibition (cellular effect <20% @ 50 μM))
- W1 cellular effect [7]: ni ^b (ni = no inhibition (cellular effect <20% @ 50 μM))
- MCF-7 cellular effect [8]: ni ^b (ni = no inhibition (cellular effect <20% @ 50 μM))
- PC-3M-luc cellular effect [9]: ni ^b (ni = no inhibition (cellular effect <20% @ 50 μM))
- IC50 [10]: 17 ± 1 nM

Compound: CC(=O)NCc1ccc(C(=O)NO)cc1 [Compound 55, 4-(Acetamidomethyl)-N-hydroxybenzamide]
- IC50 [5]: 17000 ± 1000 nM
- inhibition at 20 µM [1]: < 15%
- IC50 [10]: 650 ± 40 nM

Compound: O=C(NO)c1ccc(CNC(=O)c2ccccc2)cc1 [Compound 56, 4-(Benzamidomethyl)-N-hydroxybenzamide]
- IC50 [5]: 810 ± 50 nM
- inhibition at 20 µM [1]: < 15%
- IC50 [10]: 18 ± 1 nM

Compound: CCCCC(=O)N(CCCC)Cc1ccc(C(=O)NO)cc1 [Compound 57, 4-((N-Butylpentanamido)methyl)-N-hydroxybenzamide]
- inhibition at 20 µM ([2]; @ 20 μM): < 15%
- Sirt2 inhibition ([2]; supplementary CSV, column IC50 Sirt2 [µM]): n.i.
- inhibition at 5 µM ([1]; @ 5 μM, read-out: Sirt2 (demyristoylation) percentual inhibition): < 15%
- Cellular Sirt2 binding (NanoBRET) [11]: no Sirt2 binding
- EC50 ([6]; Homo sapiens, HGC-27, MTS, mean ± SD): 21100 ± 1600 nM
- EC50 ([7]; MTT, mean ± SD): 33600 ± 4100 nM
- EC50 ([8]; Homo sapiens, MCF7, MTT, mean ± SD): 16300 ± 5900 nM
- EC50 ([9]; PC-3M-luc, read-out: PC-3M-luc cell viability EC50, MTS, mean ± SD): 30100 ± 2300 nM

Compound: O=C(CCCCCCC(=O)Nc1ccccc1)NO [SAHA, suberoylanilide hydroxamic acid, reference compound]
- Sirt2 (demyristoylation) percentual inhibition ([1]; @ 10 μM): 18% @ 10 μM
